Data on ten molecules can be found in ChEMBL document CHEMBL5465560, “Selectivity Literature for EUbOPEN Chemogenomic Library” (2024).

Assay [1] has as its target T1, Peripheral plasma membrane protein CASK (Homo sapiens) (UniProt O14936).
T1 sequence (whole entry): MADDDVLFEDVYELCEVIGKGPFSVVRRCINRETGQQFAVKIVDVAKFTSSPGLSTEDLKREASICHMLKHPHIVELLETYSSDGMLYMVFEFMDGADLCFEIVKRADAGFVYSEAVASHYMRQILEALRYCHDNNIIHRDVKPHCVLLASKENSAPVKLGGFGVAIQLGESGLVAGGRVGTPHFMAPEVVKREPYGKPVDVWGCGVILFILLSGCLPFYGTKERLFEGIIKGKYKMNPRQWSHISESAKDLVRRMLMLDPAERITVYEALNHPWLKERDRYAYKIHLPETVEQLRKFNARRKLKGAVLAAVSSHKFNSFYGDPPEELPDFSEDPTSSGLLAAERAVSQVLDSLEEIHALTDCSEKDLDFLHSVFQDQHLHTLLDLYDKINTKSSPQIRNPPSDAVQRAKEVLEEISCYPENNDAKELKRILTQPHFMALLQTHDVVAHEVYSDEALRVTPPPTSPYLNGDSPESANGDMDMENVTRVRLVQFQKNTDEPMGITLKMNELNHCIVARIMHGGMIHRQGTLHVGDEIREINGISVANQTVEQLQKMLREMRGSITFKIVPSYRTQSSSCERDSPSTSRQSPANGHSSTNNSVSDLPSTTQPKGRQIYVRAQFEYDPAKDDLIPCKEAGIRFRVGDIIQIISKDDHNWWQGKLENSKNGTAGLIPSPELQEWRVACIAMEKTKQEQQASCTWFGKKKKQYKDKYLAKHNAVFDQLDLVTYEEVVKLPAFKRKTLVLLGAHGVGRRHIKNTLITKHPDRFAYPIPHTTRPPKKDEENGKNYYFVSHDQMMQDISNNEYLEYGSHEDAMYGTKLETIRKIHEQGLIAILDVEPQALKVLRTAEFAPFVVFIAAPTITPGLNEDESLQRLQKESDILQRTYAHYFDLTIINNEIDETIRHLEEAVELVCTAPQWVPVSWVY
Description: Selectivity interaction (LanthaScreen Eu Kinase Binding Assay) EUB0001632a CASK. Particulars: at 10 µM.

Assay [2] has as its target Tyrosine-protein kinase Fyn (Homo sapiens) (UniProt P06241). As to the kind of experiment: Selectivity interaction (ActivX KiNativ screen (ex vivo kinase selectivity in human PBMCs)) EUB0001619a FYN. Particulars: PBMC, at 1 µM. The class given is cell-based.
The target of assay [3] is Protein kinase C eta type (Homo sapiens) (UniProt P24723). Description: Selectivity interaction (KinomeScan (DiscoverX)) EUB0000666a PRKCH. Particulars: at 10 µM.
In assay [4] the target is Ribosomal protein S6 kinase alpha-6 (Homo sapiens, UniProt Q9UK32). Description: Selectivity interaction (KinomeScan (DiscoverX)) EUB0000607a RPS6KA6. Particulars: at 10 µM.
In assay [5] the target is Tyrosine-protein kinase receptor UFO (Homo sapiens) (UniProt P30530). Particulars: at 10 µM.
The target of assay [6] is T2, Serine/threonine-protein kinase TBK1 (Homo sapiens) (UniProt Q9UHD2).
T2 sequence (whole entry): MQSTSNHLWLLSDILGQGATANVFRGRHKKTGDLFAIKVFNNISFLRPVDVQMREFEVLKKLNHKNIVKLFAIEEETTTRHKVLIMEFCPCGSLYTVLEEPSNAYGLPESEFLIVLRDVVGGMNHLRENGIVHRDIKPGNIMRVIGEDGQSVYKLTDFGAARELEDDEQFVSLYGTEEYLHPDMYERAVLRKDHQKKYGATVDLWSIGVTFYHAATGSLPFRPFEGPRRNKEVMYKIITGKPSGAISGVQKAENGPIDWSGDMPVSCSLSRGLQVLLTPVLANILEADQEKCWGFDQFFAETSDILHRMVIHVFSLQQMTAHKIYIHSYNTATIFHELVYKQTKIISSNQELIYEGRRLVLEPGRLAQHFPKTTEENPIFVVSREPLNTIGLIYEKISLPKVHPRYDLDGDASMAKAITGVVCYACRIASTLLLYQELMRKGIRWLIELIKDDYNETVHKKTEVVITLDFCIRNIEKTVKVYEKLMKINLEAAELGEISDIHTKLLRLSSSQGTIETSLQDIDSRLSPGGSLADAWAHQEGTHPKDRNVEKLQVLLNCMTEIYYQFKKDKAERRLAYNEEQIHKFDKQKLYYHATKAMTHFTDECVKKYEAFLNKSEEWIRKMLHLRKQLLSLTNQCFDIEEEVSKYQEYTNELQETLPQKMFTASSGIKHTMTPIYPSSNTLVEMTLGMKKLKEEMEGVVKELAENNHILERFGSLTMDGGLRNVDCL
Description: Selectivity interaction (ActivX KiNativ screen (kinase selectivity in THP-1 cell lysates)) EUB0000639a TBK1. Particulars: lysate, at 1 µM. The class given is subcellular.

Assay [7] addresses T3, Aurora kinase A (Homo sapiens) (UniProt O14965).
T3 sequence (whole entry): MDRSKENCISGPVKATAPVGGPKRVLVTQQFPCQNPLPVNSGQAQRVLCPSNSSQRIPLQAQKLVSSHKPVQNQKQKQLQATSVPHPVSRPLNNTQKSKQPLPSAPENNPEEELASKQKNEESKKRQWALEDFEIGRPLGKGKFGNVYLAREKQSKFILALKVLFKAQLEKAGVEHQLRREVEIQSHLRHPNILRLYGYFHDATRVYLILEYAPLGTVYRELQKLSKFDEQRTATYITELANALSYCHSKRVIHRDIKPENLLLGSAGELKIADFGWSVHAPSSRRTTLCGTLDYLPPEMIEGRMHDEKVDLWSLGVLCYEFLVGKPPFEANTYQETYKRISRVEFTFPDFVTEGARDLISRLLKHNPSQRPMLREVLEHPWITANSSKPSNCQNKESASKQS
As to the kind of experiment: Selectivity interaction (ActivX KiNativ screen (kinase selectivity in THP-1 cell lysates)) EUB0000639a STK6. Particulars: lysate, at 0.04 µM. The class given is subcellular.

The target of assay [8] is 5'-AMP-activated protein kinase catalytic subunit alpha-1 (Homo sapiens, UniProt Q13131). As to the kind of experiment: Selectivity interaction (ActivX KiNativ screen (kinase selectivity in THP-1 cell lysates)) EUB0000639a PRKAA1. It counts as subcellular. Particulars: lysate, at 0.2 µM.
In assay [9] the target is Phosphatidylinositol 4-phosphate 3-kinase C2 domain-containing subunit beta (Homo sapiens) (UniProt O00750). As to the kind of experiment: Selectivity interaction (Kinase panel (Invitrogen)) EUB0000639a PIK3C2B. Particulars: at 200 nM.
The target in assay [10] is Tyrosine-protein kinase ABL1 (Homo sapiens, UniProt P00519). As to the kind of experiment: Selectivity interaction (Kinase panel (literature)) EUB0001199aCl ABL1. Particulars: at 1 µM.
Assay [11] has as its target Transcription initiation factor TFIID subunit 1-like (Homo sapiens) (UniProt Q8IZX4). Description: Selectivity interaction (Bromodomain panel (DSF asssay)) EUB0000270b TAF1L.
Assay [12] concerns the target Serine/threonine-protein kinase 38 (Homo sapiens) (UniProt Q15208). Description: Selectivity interaction (KinomeScan (DiscoverX)) EUB0000092b STK38. Particulars: at 10 µM.
Assay [13] concerns the target Proto-oncogene tyrosine-protein kinase Src (Homo sapiens, UniProt P12931). As to the kind of experiment: Selectivity interaction (Millipore kinase profiler) EUB0000124b SRC. Particulars: at 10 µM.

Sequence of Tyrosine-protein kinase Fyn (Homo sapiens) (P06241 2-537 limits assumed): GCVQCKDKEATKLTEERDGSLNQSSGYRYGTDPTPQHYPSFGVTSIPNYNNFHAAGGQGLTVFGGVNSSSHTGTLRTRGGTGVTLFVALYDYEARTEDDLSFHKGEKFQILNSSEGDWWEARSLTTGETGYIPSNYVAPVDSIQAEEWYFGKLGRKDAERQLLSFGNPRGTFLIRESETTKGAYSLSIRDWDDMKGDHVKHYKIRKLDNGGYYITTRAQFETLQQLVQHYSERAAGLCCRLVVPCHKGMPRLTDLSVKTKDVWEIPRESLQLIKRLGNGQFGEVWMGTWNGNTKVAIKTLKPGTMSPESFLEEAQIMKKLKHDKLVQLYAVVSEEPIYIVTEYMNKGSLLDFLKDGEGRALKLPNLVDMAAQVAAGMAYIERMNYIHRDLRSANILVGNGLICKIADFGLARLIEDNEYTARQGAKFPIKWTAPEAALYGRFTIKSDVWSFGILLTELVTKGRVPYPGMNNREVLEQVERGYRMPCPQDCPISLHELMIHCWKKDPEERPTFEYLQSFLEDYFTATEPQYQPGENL
Sequence of Transcription initiation factor TFIID subunit 1-like (Homo sapiens) (Q8IZX4 whole entry): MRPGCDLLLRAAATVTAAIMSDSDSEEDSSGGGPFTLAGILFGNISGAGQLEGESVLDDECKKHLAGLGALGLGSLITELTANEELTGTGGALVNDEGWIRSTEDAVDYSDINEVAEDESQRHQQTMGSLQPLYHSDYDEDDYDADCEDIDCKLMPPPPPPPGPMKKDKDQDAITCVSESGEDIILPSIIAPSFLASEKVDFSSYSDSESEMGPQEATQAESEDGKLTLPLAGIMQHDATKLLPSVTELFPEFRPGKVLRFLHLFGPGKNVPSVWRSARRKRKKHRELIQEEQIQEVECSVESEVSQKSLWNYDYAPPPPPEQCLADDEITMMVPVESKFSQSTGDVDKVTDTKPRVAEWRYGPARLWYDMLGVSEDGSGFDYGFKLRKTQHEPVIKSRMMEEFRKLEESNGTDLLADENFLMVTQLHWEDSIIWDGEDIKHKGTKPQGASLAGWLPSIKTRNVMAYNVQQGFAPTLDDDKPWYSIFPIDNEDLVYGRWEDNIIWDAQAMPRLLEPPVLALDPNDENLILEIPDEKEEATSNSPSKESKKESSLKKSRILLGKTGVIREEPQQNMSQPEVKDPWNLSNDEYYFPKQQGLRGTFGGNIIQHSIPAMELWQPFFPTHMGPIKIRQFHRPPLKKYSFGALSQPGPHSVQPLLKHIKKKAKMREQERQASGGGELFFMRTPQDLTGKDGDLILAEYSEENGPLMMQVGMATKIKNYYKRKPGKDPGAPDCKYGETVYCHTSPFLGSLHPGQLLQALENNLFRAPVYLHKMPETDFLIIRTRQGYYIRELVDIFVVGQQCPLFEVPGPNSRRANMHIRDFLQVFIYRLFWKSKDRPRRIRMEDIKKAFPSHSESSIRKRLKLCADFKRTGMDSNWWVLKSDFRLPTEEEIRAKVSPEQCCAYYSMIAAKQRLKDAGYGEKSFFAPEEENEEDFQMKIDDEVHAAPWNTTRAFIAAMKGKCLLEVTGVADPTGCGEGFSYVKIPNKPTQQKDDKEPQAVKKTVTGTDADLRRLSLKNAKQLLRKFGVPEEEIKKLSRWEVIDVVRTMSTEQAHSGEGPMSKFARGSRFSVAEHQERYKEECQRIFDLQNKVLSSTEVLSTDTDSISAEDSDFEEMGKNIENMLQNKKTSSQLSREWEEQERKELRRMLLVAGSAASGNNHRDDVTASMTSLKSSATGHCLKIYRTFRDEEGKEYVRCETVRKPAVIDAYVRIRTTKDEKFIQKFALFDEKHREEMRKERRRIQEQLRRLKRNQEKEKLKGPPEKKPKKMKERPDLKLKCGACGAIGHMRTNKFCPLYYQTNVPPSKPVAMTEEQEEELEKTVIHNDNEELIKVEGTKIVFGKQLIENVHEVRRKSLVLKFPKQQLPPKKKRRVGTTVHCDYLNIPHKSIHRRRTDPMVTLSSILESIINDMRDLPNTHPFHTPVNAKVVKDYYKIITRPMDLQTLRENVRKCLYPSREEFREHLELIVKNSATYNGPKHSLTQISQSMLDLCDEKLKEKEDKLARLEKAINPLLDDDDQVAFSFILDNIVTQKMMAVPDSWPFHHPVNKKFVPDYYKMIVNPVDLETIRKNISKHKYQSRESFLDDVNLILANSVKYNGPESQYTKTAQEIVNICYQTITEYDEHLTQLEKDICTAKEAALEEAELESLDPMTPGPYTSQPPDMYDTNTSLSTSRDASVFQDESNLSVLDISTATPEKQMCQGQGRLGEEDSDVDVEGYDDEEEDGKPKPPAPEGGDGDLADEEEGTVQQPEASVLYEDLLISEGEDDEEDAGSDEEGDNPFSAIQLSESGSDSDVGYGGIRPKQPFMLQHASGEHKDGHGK
Sequence of Proto-oncogene tyrosine-protein kinase Src (P12931 2-536 limits assumed): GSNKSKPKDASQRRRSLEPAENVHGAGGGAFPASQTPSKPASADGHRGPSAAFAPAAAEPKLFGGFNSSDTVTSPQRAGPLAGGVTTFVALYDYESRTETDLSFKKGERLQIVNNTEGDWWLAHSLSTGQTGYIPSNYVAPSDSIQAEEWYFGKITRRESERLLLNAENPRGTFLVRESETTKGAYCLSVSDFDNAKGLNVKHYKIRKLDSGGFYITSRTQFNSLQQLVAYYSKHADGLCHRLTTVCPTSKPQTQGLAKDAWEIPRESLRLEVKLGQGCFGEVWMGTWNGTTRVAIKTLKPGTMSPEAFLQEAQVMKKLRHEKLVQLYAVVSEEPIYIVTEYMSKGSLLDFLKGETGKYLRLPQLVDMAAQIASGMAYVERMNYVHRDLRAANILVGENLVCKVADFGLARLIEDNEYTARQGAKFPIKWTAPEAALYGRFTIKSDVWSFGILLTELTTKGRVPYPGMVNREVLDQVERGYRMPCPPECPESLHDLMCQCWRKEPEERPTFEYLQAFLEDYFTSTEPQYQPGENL
Sequence of Phosphatidylinositol 4-phosphate 3-kinase C2 domain-containing subunit beta (Homo sapiens) (O00750 whole entry, the tested form may be a part): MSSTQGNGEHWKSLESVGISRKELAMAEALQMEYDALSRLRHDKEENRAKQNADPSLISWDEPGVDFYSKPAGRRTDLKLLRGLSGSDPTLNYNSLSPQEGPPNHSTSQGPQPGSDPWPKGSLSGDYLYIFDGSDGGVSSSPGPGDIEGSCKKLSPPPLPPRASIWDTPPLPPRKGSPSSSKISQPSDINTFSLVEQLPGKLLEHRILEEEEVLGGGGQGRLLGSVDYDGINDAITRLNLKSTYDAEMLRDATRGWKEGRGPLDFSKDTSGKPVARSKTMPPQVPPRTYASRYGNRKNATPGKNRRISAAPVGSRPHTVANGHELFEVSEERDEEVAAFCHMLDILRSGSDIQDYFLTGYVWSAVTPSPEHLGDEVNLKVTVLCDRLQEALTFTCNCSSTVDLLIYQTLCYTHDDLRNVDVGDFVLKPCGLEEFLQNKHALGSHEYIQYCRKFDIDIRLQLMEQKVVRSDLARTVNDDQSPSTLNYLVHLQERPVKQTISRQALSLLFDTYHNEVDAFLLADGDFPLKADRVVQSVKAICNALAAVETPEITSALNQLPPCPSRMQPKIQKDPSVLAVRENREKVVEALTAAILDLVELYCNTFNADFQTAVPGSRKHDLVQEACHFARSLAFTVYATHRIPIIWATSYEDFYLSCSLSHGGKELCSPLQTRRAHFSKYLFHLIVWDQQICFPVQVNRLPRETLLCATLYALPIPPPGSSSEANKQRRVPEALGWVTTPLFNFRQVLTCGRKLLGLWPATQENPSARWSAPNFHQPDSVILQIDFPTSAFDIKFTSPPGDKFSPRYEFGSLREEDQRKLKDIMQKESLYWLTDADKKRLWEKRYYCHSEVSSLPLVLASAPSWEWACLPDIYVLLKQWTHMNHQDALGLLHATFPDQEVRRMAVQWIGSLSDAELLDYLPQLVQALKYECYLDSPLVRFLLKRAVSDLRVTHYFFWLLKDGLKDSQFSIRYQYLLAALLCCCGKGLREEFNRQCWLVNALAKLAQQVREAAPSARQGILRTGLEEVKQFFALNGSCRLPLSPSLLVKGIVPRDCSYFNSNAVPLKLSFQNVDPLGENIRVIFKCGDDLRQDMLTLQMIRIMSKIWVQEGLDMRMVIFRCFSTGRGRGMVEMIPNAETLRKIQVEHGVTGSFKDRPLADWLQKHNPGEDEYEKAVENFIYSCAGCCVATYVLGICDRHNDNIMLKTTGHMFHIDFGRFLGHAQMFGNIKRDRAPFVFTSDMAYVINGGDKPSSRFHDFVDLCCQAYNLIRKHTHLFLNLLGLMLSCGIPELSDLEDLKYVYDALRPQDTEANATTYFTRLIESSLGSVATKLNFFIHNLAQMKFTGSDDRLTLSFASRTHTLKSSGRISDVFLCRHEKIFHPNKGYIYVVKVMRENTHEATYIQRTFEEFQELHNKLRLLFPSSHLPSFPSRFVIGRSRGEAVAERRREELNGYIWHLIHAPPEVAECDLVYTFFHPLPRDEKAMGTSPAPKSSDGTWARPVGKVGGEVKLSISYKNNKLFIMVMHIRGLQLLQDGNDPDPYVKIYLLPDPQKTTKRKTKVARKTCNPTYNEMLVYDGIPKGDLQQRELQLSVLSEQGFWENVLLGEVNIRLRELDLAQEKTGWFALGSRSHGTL
Sequence of Serine/threonine-protein kinase 38 (Homo sapiens) (Q15208 2-465 limits assumed): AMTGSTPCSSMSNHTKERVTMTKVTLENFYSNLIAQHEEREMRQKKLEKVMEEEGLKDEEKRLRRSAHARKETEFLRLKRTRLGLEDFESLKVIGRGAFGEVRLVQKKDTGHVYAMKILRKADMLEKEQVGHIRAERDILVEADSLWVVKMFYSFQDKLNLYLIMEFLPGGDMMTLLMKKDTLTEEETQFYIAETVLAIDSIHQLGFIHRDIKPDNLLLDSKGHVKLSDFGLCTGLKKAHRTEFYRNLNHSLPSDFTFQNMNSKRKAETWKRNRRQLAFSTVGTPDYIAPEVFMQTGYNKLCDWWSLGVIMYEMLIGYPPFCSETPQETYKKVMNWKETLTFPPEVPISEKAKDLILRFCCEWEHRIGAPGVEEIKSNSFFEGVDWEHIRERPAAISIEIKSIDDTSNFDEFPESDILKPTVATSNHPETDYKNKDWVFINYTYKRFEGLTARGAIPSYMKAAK

With `Cn1cc(-n2cnc3c(NCc4nc5cc(Cl)c(Cl)cc5[nH]4)nc(N4CCOCC4)nc32)cn1`, the % of inhibition in assay [1] is -92.6%.
Take `N#Cc1cccc(-c2c[nH]c3ncnc(N4CCOCC4)c23)c1`: the % of inhibition in [2] is -9%.
`O=C(NOC[C@H](O)CO)c1ccc(F)c(F)c1Nc1ccc(I)cc1F` showed a % of control in [3] of 100%.
For `CNC(=O)Nc1ccc(-c2nc(N3CC4CCC(C3)O4)c3cnn(C4CCC5(CC4)OCCO5)c3n2)cc1`, the % of control in [4] amounted to 87%.
In the case of `Cc1cc([C@@H](C)Nc2ccccc2C(=O)O)c2nc(N3CCOCC3)cc(=O)n2c1` [AZD-6482], the % of control in [5] is 86%.
Take `CC[C@@H]1[C@H](F)C(=O)N[C@@H]1COc1nccc2cc(C(N)=O)c(OC)cc12` [ZIMLOVISERTIB]: the % of inhibition in assay [6] was 7.6%; in assay [7], -6.4%; in [8], 8.7%; in assay [9] it was 7.24%.
For the molecule `CN1Cc2nccc(-c3cn(C)nc3-c3ccc(F)cc3)c2C1=O`, in [10], the % of inhibition stood at 1%.
For the molecule `Cc1cc(CN)cc(C)c1-c1ncn(C)c1-c1cncn1C`, in assay [11], the dTM was -1.56 K.
Take `CCC(=O)N1CCN(c2ccc(-n3c(=O)ccc4cnc5ccc(-c6cnc7ccccc7c6)cc5c43)cc2C(F)(F)F)CC1`: in [12], the % of control is 100%.
`CC(=O)Nc1cccc(-n2c(=O)n(C3CC3)c(=O)c3c(Nc4ccc(I)cc4F)n(C)c(=O)c(C)c32)c1` yielded a % of control in assay [13] of 82%.
